Measurements reported in PubChem BioAssay AID330 (DTP/NCI, 2004).
Several values for one entry are separate records, joined by “and”; a condition that tells them apart may be missing. Identical values can stand only once. Inconclusive results and toxic doses are left out. The calls were made as follows: active = survival T/C of 150% or more; inactive = T/C below 125% in these data.

Test system: P388 leukemia ip, CD2F1 mice, survival T/C
Assay: NCI In Vivo Anticancer Drug Screen. Data for tumor model P388 Leukemia (intraperitoneal) in CD2F1 (CDF1) mice
Settings: endpoint: median survival time, higher = longer survival
Outline: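 Mice carrying the transplanted tumor received test compound or vehicle. Survival was recorded in each group, and the value is the treated-group measurement divided by that of the vehicle-treated control group.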

[1] = dose: 25.0 mg/kg/injection, schedule: Q01DX009 (ip), vehicle: saline with Tween-80
[2] = dose: 50.0 mg/kg/injection, schedule: Q01DX009 (ip), vehicle: saline with Tween-80
[3] = dose: 100.0 mg/kg/injection, schedule: Q01DX009 (ip), vehicle: saline with Tween-80
[4] = dose: 50.0 mg/kg/injection, schedule: Q01DX005 (ip), vehicle: saline with Tween-80
[5] = dose: 50.0 mg/kg/injection, schedule: Q01DX005 (ip), vehicle: Klucel (hydroxypropylcellulose) (HPC)
[6] = dose: 60.0 mg/kg/injection, schedule: Q01DX005 (ip), vehicle: Klucel (hydroxypropylcellulose) (HPC)
[7] = dose: 120.0 mg/kg/injection, schedule: Q01DX005 (ip), vehicle: Klucel (hydroxypropylcellulose) (HPC)
[8] = dose: 240.0 mg/kg/injection, schedule: Q01DX005 (ip), vehicle: Klucel (hydroxypropylcellulose) (HPC)
[9] = dose: 50.0 mg/kg/injection, schedule: Q01DX009 (ip), vehicle: saline
[10] = dose: 100.0 mg/kg/injection, schedule: Q01DX009 (ip), vehicle: saline
[11] = dose: 200.0 mg/kg/injection, schedule: Q01DX009 (ip), vehicle: saline
[12] = dose: 12.5 mg/kg/injection, schedule: Q01DX005 (ip), vehicle: Klucel (hydroxypropylcellulose) (HPC)
[13] = dose: 25.0 mg/kg/injection, schedule: Q01DX005 (ip), vehicle: Klucel (hydroxypropylcellulose) (HPC)
[14] = dose: 200.0 mg/kg/injection, schedule: Q01DX009 (ip), vehicle: saline with Tween-80

Measured: T/C

Clc1nc[nH]c1Cl
inactive: [1] 109 % of control | [2] 100 % of control | [3] 98 % of control

COc1ccc(OC)c(N2C(=O)C=C(C)C2(O)CC#N)c1 (stereo not drawn)
inactive: dose: 6.25 mg/kg/injection, schedule: Q01DX009 (ip), vehicle: saline with Tween-80 100 % of control | dose: 12.5 mg/kg/injection, schedule: Q01DX009 (ip), vehicle: saline with Tween-80 95 % of control | [1] 98 % of control | [2] 98 % of control

C=CCCC1CC2CCCCN2O1 (stereo not drawn)
inactive: dose: 61.25 mg/kg/injection, schedule: Q01DX009 (ip), vehicle: saline 115 % of control | dose: 122.5 mg/kg/injection, schedule: Q01DX009 (ip), vehicle: saline 103 % of control | dose: 245.0 mg/kg/injection, schedule: Q01DX009 (ip), vehicle: saline 100 % of control

O=C(Nc1cccc(Cl)c1)/C(Cl)=C1/Sc2ccccc2NC1=O
inactive: [4] 105 % of control | dose: 100.0 mg/kg/injection, schedule: Q01DX005 (ip), vehicle: saline with Tween-80 98 % of control | dose: 200.0 mg/kg/injection, schedule: Q01DX005 (ip), vehicle: saline with Tween-80 98 % of control

S=C(Nc1ccccc1)Nc1ncn[nH]1
inactive: [5] 101 % of control | dose: 100.0 mg/kg/injection, schedule: Q01DX005 (ip), vehicle: Klucel (hydroxypropylcellulose) (HPC) 100 % of control | dose: 200.0 mg/kg/injection, schedule: Q01DX005 (ip), vehicle: Klucel (hydroxypropylcellulose) (HPC) 99 % of control

Brc1ccc2c(ccc3c2nnc2ncnn23)c1
inactive: [6] 102 % of control | [7] 93 % of control | [8] 86 % of control

Cc1cc(Cl)cnc1N
inactive: [9] 99 % of control | [10] 97 % of control | [11] 92 % of control

NCC1CC2CCC1CC2 (stereo not drawn)
inactive: dose: 12.5 mg/kg/injection, schedule: Q01DX005 (ip), vehicle: saline with Tween-80 99 % of control | dose: 25.0 mg/kg/injection, schedule: Q01DX005 (ip), vehicle: saline with Tween-80 100 % of control | [4] 100 % of control and 102 % of control

CC[PH+](CC)CC.[Cl][Au]
inactive: dose: 1.25 mg/kg/injection, schedule: Q01DX009 (ip), vehicle: Klucel (hydroxypropylcellulose) (HPC) 100 % of control | dose: 2.5 mg/kg/injection, schedule: Q01DX009 (ip), vehicle: Klucel (hydroxypropylcellulose) (HPC) 99 % of control and 121 % of control | dose: 5.0 mg/kg/injection, schedule: Q01DX009 (ip), vehicle: Klucel (hydroxypropylcellulose) (HPC) 114 % of control (2×) and 123 % of control | dose: 10.0 mg/kg/injection, schedule: Q01DX009 (ip), vehicle: Klucel (hydroxypropylcellulose) (HPC) 124 % of control

CC(N)C1CCC2C3CC=C4CC(N)CCC4(C)C3CCC12C (stereo not drawn)
inactive: dose: 10.0 mg/kg/injection, schedule: Q01DX009 (ip), vehicle: saline with Tween-80 112 % of control | dose: 20.0 mg/kg/injection, schedule: Q01DX009 (ip), vehicle: saline with Tween-80 94 % of control

COc1cc(C2c3cc4c(cc3OC(C)(O)C2C(C)=O)OCO4)cc(OC)c1OC (stereo not drawn)
inactive: dose: 60.0 mg/kg/injection, schedule: Q01DX005 (ip), vehicle: saline with Tween-80 87 % of control | dose: 120.0 mg/kg/injection, schedule: Q01DX005 (ip), vehicle: saline with Tween-80 94 % of control | dose: 240.0 mg/kg/injection, schedule: Q01DX005 (ip), vehicle: saline with Tween-80 100 % of control

CN(C)P(=O)(N(C)C)N1CCCC1
inactive: [9] 104 % of control | [10] 106 % of control | [11] 105 % of control

COc1cc2c(cc1OC)C(O)C1CCCNC1C2 (stereo not drawn)
inactive: dose: 25.0 mg/kg/injection, schedule: Q04DX002 (ip), vehicle: saline 98 % of control | dose: 50.0 mg/kg/injection, schedule: Q04DX002 (ip), vehicle: saline 103 % of control | dose: 100.0 mg/kg/injection, schedule: Q04DX002 (ip), vehicle: saline 102 % of control | dose: 200.0 mg/kg/injection, schedule: Q04DX002 (ip), vehicle: saline 102 % of control | dose: 400.0 mg/kg/injection, schedule: Q04DX002 (ip), vehicle: saline 101 % of control

O=C(N[C@@H](CO)[C@H]1CC(Br)=NO1)C(Cl)(Cl)Cl
inactive: dose: 12.5 mg/kg/injection, schedule: Q01DX005 (ip), vehicle: distilled water + Tween-80 100 % of control | dose: 25.0 mg/kg/injection, schedule: Q01DX005 (ip), vehicle: distilled water + Tween-80 102 % of control | dose: 50.0 mg/kg/injection, schedule: Q01DX005 (ip), vehicle: distilled water + Tween-80 105 % of control | dose: 100.0 mg/kg/injection, schedule: Q01DX005 (ip), vehicle: distilled water + Tween-80 107 % of control

N#C/C(=C\C=C\c1ccccc1)c1nc(-c2ccc(Cl)cc2)cs1
inactive: [9] 91 % of control | [10] 91 % of control | [11] 88 % of control

CC(=O)c1ccc(O)c(O)c1O
inactive: [10] 103 % of control and 104 % of control | [11] 107 % of control and 120 % of control | dose: 600.0 mg/kg/injection, schedule: Q01DX009 (ip), vehicle: saline 103 % of control and 104 % of control

COc1cc(OC)c(/C=N/Nc2cc(C)nc3cc4c(cc23)OCO4)c(OC)c1
inactive: dose: 1.56 mg/kg/injection, schedule: Q01DX005 (ip), vehicle: Klucel (hydroxypropylcellulose) (HPC) 106 % of control | dose: 3.12 mg/kg/injection, schedule: Q01DX005 (ip), vehicle: Klucel (hydroxypropylcellulose) (HPC) 97 % of control | dose: 6.25 mg/kg/injection, schedule: Q01DX005 (ip), vehicle: Klucel (hydroxypropylcellulose) (HPC) 102 % of control and 91 % of control | [12] 100 % of control and 87 % of control | [13] 103 % of control

OC(CNc1ccccc1Cl)COc1ccc(Cl)cc1Cl (stereo not drawn)
inactive: [2] 94 % of control | [3] 95 % of control | [14] 106 % of control

CCC[CH2][Sn]([CH3])([CH3])[CH2]CCN(C)C
inactive: [9] 98 % of control | [10] 98 % of control | [11] 88 % of control

CC(=O)N1CCNC(=O)/C1=C1\CCOC1=O
inactive: [2] 99 % of control | [3] 101 % of control | [14] 110 % of control

CCOC(=O)/C=C/C(=O)NNS(=O)(=O)CCC(NC(=O)OCc1ccccc1)C(=O)OCc1ccccc1 (stereo not drawn)
inactive: dose: 12.5 mg/kg/injection, schedule: Q01DX009 (ip), vehicle: other 92 % of control | dose: 25.0 mg/kg/injection, schedule: Q01DX009 (ip), vehicle: other 101 % of control | dose: 50.0 mg/kg/injection, schedule: Q01DX009 (ip), vehicle: other 104 % of control | dose: 100.0 mg/kg/injection, schedule: Q01DX009 (ip), vehicle: other 93 % of control | dose: 200.0 mg/kg/injection, schedule: Q01DX009 (ip), vehicle: other 86 % of control

CC(C)(Nc1ccccc1)c1cccs1
inactive: [3] 109 % of control | [14] 109 % of control | dose: 400.0 mg/kg/injection, schedule: Q01DX009 (ip), vehicle: saline with Tween-80 95 % of control

COC(=O)/C(=C/c1c[nH]c2ccccc12)NC=O
inactive: [6] 97 % of control | [7] 97 % of control | [8] 92 % of control

CCC1=CCC2C(=O)C3CC(CC)=CCC3C(=O)C2C1 (stereo not drawn)
inactive: [12] 97 % of control | [13] 92 % of control | [5] 87 % of control and 88 % of control

Cn1c2nc(-[n+]3ccc4ccccc4c3)nc-2c([O-])n(C)c1=O
inactive: dose: 100.0 mg/kg/injection, schedule: Q04DX003 (ip), vehicle: saline 100 % of control | dose: 200.0 mg/kg/injection, schedule: Q04DX003 (ip), vehicle: saline 99 % of control | dose: 400.0 mg/kg/injection, schedule: Q04DX003 (ip), vehicle: saline 100 % of control
